Source: ChEMBL document CHEMBL1201862, “PubChem BioAssay data set” (2004)
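Protocol summary: plate cells (96-well), add compound at 5 concentrations, incubate 48 h, interpolate endpoints linearly. Here, GI50 denotes the concentration required for 50% inhibition of growth.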 Calls of active or inactive are those of the source. Cut-off read from the data, not from the text of the source: active = GI50 up to about 1.1 µM and inactive = higher.

What was measured:
Experiment in all cases: growth of human tumour cells (NCI), 48 h
EKVX = test system: EKVX
NCI-H460 = test system: NCI-H460
DU-145 = test system: DU-145
Malme-3M = test system: Malme-3M
UO-31 = test system: UO-31
LOX IMVI = test system: LOX IMVI
SF-539 = test system: SF-539
U-251 = test system: U-251
HCT-116 = test system: HCT-116
OVCAR-4 = test system: OVCAR-4
UACC-62 = test system: UACC-62
SN12C = test system: SN12C
A498 = test system: A498
NCI-H23 = test system: NCI-H23
SNB-19 = test system: SNB-19
Hs-578T = test system: Hs-578T
NCI/ADR-RES = test system: NCI/ADR-RES
SF-295 = test system: SF-295
SK-MEL-2 = test system: SK-MEL-2
PC-3 = test system: PC-3

## CS(=N)(=O)CCC(N)P(=O)(O)O (stereo not given)
EKVX
  GI50: > 100 µM (inactive)
NCI-H460
  GI50: > 100 µM (inactive)
DU-145
  GI50: > 100 µM (inactive)
Malme-3M
  GI50: > 100 µM (inactive)
UO-31
  GI50: > 100 µM (inactive)
LOX IMVI
  GI50: > 100 µM (inactive)
SF-539
  GI50: > 100 µM (inactive)
U-251
  GI50: > 100 µM (inactive)
HCT-116
  GI50: > 100 µM (inactive)
OVCAR-4
  GI50: > 100 µM (inactive)
UACC-62
  GI50: > 100 µM (inactive)
SN12C
  GI50: > 100 µM (inactive)
A498
  GI50: > 100 µM (inactive)
NCI-H23
  GI50: > 100 µM (inactive)
SNB-19
  GI50: > 100 µM (inactive)
Hs-578T
  GI50: > 100 µM (inactive)
NCI/ADR-RES
  GI50: > 100 µM (inactive)
SF-295
  GI50: > 100 µM (inactive)
SK-MEL-2
  GI50: > 100 µM (inactive)
PC-3
  GI50: > 100 µM (inactive)

## COc1ccc(/C=C\c2cc(OC)c(OC)c(OC)c2)cc1OC(=O)CCC(=O)O
EKVX
  GI50: 0.0149 µM (active)
NCI-H460
  GI50: < 0.0001 µM (active)
DU-145
  GI50: < 0.0001 µM (active)
Malme-3M
  GI50: < 0.0001 µM (active)
UO-31
  GI50: 1.34 µM (inactive)
LOX IMVI
  GI50: < 0.0001 µM (active)
SF-539
  GI50: < 0.01 µM (active)
U-251
  GI50: < 0.0001 µM (active)
HCT-116
  GI50: < 0.0001 µM (active)
OVCAR-4
  GI50: 36 µM (inactive)
UACC-62
  GI50: < 0.0001 µM (active)
SN12C
  GI50: < 0.0001 µM (active)
A498
  GI50: 0.067 µM (active)
NCI-H23
  GI50: 0.0119 µM (active)
SNB-19
  GI50: < 0.0001 µM (active)
Hs-578T
  GI50: < 0.01 µM (active)
NCI/ADR-RES
  GI50: < 0.0001 µM (active)
SF-295
  GI50: 0.000158 µM (active)
SK-MEL-2
  GI50: 0.0126 µM (active)
PC-3
  GI50: < 0.0001 µM (active)

## c1ccc2c(c1)nnn2C1CCCCO1 (stereo not given)
EKVX
  GI50: > 100 µM (inactive)
NCI-H460
  GI50: > 100 µM (inactive)
DU-145
  GI50: > 100 µM (inactive)
Malme-3M
  GI50: > 100 µM (inactive)
UO-31
  GI50: > 100 µM (inactive)
LOX IMVI
  GI50: > 100 µM (inactive)
SF-539
  GI50: > 100 µM (inactive)
U-251
  GI50: > 100 µM (inactive)
HCT-116
  GI50: > 100 µM (inactive)
OVCAR-4
  GI50: > 100 µM (inactive)
UACC-62
  GI50: > 100 µM (inactive)
SN12C
  GI50: > 100 µM (inactive)
A498
  GI50: > 100 µM (inactive)
NCI-H23
  GI50: > 100 µM (inactive)
SNB-19
  GI50: > 100 µM (inactive)
Hs-578T
  GI50: > 100 µM (inactive)
NCI/ADR-RES
  GI50: > 100 µM (inactive)
SF-295
  GI50: > 100 µM (inactive)
SK-MEL-2
  GI50: > 100 µM (inactive)
PC-3
  GI50: > 100 µM (inactive)

## C[N+](C)(N)CCC[N+](C)(C)N
EKVX
  GI50: > 100 µM (inactive)
NCI-H460
  GI50: > 100 µM (inactive)
DU-145
  GI50: > 100 µM (inactive)
Malme-3M
  GI50: > 100 µM (inactive)
UO-31
  GI50: > 100 µM (inactive)
LOX IMVI
  GI50: > 100 µM (inactive)
SF-539
  GI50: > 100 µM (inactive)
U-251
  GI50: > 100 µM (inactive)
HCT-116
  GI50: > 100 µM (inactive)
OVCAR-4
  GI50: > 100 µM (inactive)
UACC-62
  GI50: > 100 µM (inactive)
SN12C
  GI50: > 100 µM (inactive)
A498
  GI50: > 100 µM (inactive)
NCI-H23
  GI50: > 100 µM (inactive)
SNB-19
  GI50: > 100 µM (inactive)
Hs-578T
  GI50: > 100 µM (inactive)
NCI/ADR-RES
  GI50: > 100 µM (inactive)
SF-295
  GI50: > 100 µM (inactive)
SK-MEL-2
  GI50: > 100 µM (inactive)
PC-3
  GI50: > 100 µM (inactive)

## CC(=O)N(CCc1ccccc1)C(C#N)c1ccc(OCCCCCCCCCCOc2ccc(C(C#N)N(CCc3ccccc3)C(C)=O)cc2)cc1 (stereo not given)
EKVX
  GI50: 36.5 µM (inactive)
NCI-H460
  GI50: 94.8 µM (inactive)
DU-145
  GI50: 85.9 µM (inactive)
Malme-3M
  GI50: > 100 µM (inactive)
UO-31
  GI50: 62.2 µM (inactive)
LOX IMVI
  GI50: > 100 µM (inactive)
SF-539
  GI50: 23.3 µM (inactive)
U-251
  GI50: 21.7 µM (inactive)
HCT-116
  GI50: > 100 µM (inactive)
OVCAR-4
  GI50: 5.41 µM (inactive)
UACC-62
  GI50: 62.1 µM (inactive)
SN12C
  GI50: > 100 µM (inactive)
A498
  GI50: 31.3 µM (inactive)
NCI-H23
  GI50: 44.9 µM (inactive)
SNB-19
  GI50: 20.5 µM (inactive)
Hs-578T
  GI50: 17.1 µM (inactive)
NCI/ADR-RES
  GI50: 24.6 µM (inactive)
SF-295
  GI50: 12.4 µM (inactive)
SK-MEL-2
  GI50: 47.2 µM (inactive)
PC-3
  GI50: 63.4 µM (inactive)

## Clc1ccc(Cl)c(/N=N/c2cc3c4c(c2)CCCN4CCC3)c1
EKVX
  GI50: > 10 µM (inactive)
NCI-H460
  GI50: > 10 µM (inactive)
DU-145
  GI50: > 10 µM (inactive)
Malme-3M
  GI50: > 10 µM (inactive)
UO-31
  GI50: > 10 µM (inactive)
LOX IMVI
  GI50: > 10 µM (inactive)
SF-539
  GI50: > 10 µM (inactive)
U-251
  GI50: > 10 µM (inactive)
HCT-116
  GI50: > 10 µM (inactive)
OVCAR-4
  GI50: > 10 µM (inactive)
UACC-62
  GI50: > 10 µM (inactive)
SN12C
  GI50: > 10 µM (inactive)
A498
  GI50: > 10 µM (inactive)
NCI-H23
  GI50: > 10 µM (inactive)
SNB-19
  GI50: > 10 µM (inactive)
Hs-578T
  GI50: > 10 µM (inactive)
NCI/ADR-RES
  GI50: > 10 µM (inactive)
SF-295
  GI50: > 10 µM (inactive)
SK-MEL-2
  GI50: > 10 µM (inactive)
PC-3
  GI50: > 10 µM (inactive)

## CCCCc1ccc(Nc2nc(SC)c3[nH]cnc3n2)cc1
EKVX
  GI50: 24.9 µM (inactive)
NCI-H460
  GI50: 13.9 µM (inactive)
DU-145
  GI50: > 100 µM (inactive)
Malme-3M
  GI50: > 100 µM (inactive)
UO-31
  GI50: > 78.2 µM (inactive)
LOX IMVI
  GI50: > 46.6 µM (inactive)
SF-539
  GI50: 36.6 µM (inactive)
U-251
  GI50: 26.2 µM (inactive)
HCT-116
  GI50: 23.6 µM (inactive)
OVCAR-4
  GI50: > 100 µM (inactive)
UACC-62
  GI50: 45.5 µM (inactive)
SN12C
  GI50: > 84.9 µM (inactive)
A498
  GI50: 18.7 µM (inactive)
NCI-H23
  GI50: 28.6 µM (inactive)
SNB-19
  GI50: 36.6 µM (inactive)
Hs-578T
  GI50: 43 µM (inactive)
NCI/ADR-RES
  GI50: 23.6 µM (inactive)
SF-295
  GI50: > 47.9 µM (inactive)
SK-MEL-2
  GI50: > 38.5 µM (inactive)
PC-3
  GI50: > 100 µM (inactive)

## O=C(/C=C/c1ccc(O)c(O)c1)OCc1ccccc1 [BENZYL CAFFEATE]
EKVX
  GI50: 29.7 µM (inactive)
NCI-H460
  GI50: 12.8 µM (inactive)
DU-145
  GI50: 15.1 µM (inactive)
Malme-3M
  GI50: 11.8 µM (inactive)
UO-31
  GI50: 13.7 µM (inactive)
LOX IMVI
  GI50: 15.5 µM (inactive)
SF-539
  GI50: 7.06 µM (inactive)
U-251
  GI50: 14.5 µM (inactive)
HCT-116
  GI50: 13.4 µM (inactive)
OVCAR-4
  GI50: 8.97 µM (inactive)
UACC-62
  GI50: 6.58 µM (inactive)
SN12C
  GI50: 11.6 µM (inactive)
A498
  GI50: 20.5 µM (inactive)
NCI-H23
  GI50: 14.8 µM (inactive)
SNB-19
  GI50: 27.6 µM (inactive)
Hs-578T
  GI50: 9.71 µM (inactive)
NCI/ADR-RES
  GI50: 15.8 µM (inactive)
SF-295
  GI50: 11.2 µM (inactive)
SK-MEL-2
  GI50: 13.4 µM (inactive)
PC-3
  GI50: 18 µM (inactive)

## COc1ccc(C2C3=C(COC3=O)OC(C)(C)Oc3cc4c(cc32)OCO4)cc1OC (stereo not given)
EKVX
  GI50: 28.5 µM (inactive)
NCI-H460
  GI50: 37.1 µM (inactive)
DU-145
  GI50: 42.1 µM (inactive)
Malme-3M
  GI50: 29.7 µM (inactive)
UO-31
  GI50: 47.9 µM (inactive)
LOX IMVI
  GI50: 40.8 µM (inactive)
SF-539
  GI50: 29.1 µM (inactive)
U-251
  GI50: 39.1 µM (inactive)
HCT-116
  GI50: 34.6 µM (inactive)
OVCAR-4
  GI50: > 53.8 µM (inactive)
UACC-62
  GI50: 34 µM (inactive)
SN12C
  GI50: 51.9 µM (inactive)
A498
  GI50: 23.1 µM (inactive)
NCI-H23
  GI50: 36.8 µM (inactive)
SNB-19
  GI50: 44.4 µM (inactive)
Hs-578T
  GI50: 31.6 µM (inactive)
NCI/ADR-RES
  GI50: 19.9 µM (inactive)
SF-295
  GI50: 29 µM (inactive)
SK-MEL-2
  GI50: 34.4 µM (inactive)
PC-3
  GI50: 28.1 µM (inactive)

## CC(C)(C)OC(=O)CCCCCNC(=O)CCCCCNC(=O)CCC(CN(CC(=O)OCc1ccccc1)CC(=O)OCc1ccccc1)N(CC(=O)OCc1ccccc1)CC(=O)OCc1ccccc1 (stereo not given)
EKVX
  GI50: > 100 µM (inactive)
NCI-H460
  GI50: 14.6 µM (inactive)
DU-145
  GI50: > 100 µM (inactive)
Malme-3M
  GI50: > 100 µM (inactive)
UO-31
  GI50: 71.1 µM (inactive)
LOX IMVI
  GI50: > 100 µM (inactive)
SF-539
  GI50: > 100 µM (inactive)
U-251
  GI50: > 100 µM (inactive)
HCT-116
  GI50: > 100 µM (inactive)
OVCAR-4
  GI50: > 100 µM (inactive)
UACC-62
  GI50: > 100 µM (inactive)
SN12C
  GI50: > 100 µM (inactive)
A498
  GI50: > 100 µM (inactive)
NCI-H23
  GI50: 68.1 µM (inactive)
SNB-19
  GI50: > 100 µM (inactive)
Hs-578T
  GI50: > 100 µM (inactive)
NCI/ADR-RES
  GI50: > 100 µM (inactive)
SF-295
  GI50: > 100 µM (inactive)
SK-MEL-2
  GI50: > 100 µM (inactive)
PC-3
  GI50: > 100 µM (inactive)
